Columns and labels:
Histamine H3 receptor [1] = target: T1, Histamine H3 receptor (Homo sapiens, UniProt Q9Y5N1); test: Antagonist activity at human histamine H3 receptor; format: functional; conditions: read-out: pA2 (converted)
Histamine H3 receptor [2] = target: T1, Histamine H3 receptor; test: Binding affinity to human histamine H3 receptor
[3] = Metabolic stability in human liver microsomes assessed as half life; format: ADME, Microsome
[4] = Metabolic stability in rat liver microsomes assessed as half life; format: ADME, Microsome
[5] = Volume of distribution in rat at 10 mg/kg, iv; format: ADME, organism-based; set-up: dose 10 mg/kg, route intravenous; conditions: in vivo
[6] = Half life in rat at 10 mg/kg, po; format: ADME, organism-based; set-up: dose 10 mg/kg, route oral; conditions: in vivo
Histamine H3 receptor [7] = target: Histamine H3 receptor (Rattus norvegicus, UniProt Q9QYN8); test: Antagonist activity at rat histamine H3 receptor; format: functional; conditions: read-out: pA2 (converted)
Histamine H3 receptor (Rattus norvegicus, UniProt Q9QYN8), sequence (Q9QYN8 whole entry): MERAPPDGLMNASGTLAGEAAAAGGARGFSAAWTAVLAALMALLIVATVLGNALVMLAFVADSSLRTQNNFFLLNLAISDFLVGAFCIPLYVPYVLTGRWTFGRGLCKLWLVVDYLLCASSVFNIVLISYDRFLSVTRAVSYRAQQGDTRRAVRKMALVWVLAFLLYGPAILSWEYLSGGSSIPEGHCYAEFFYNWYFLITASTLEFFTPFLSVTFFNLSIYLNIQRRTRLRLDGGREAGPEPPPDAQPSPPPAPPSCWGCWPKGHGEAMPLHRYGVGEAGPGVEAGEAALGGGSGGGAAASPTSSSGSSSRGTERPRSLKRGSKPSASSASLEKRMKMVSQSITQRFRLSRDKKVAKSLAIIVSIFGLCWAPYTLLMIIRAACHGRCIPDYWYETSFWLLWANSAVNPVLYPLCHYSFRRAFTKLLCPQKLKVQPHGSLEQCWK

[8] = Clearance in rat at 10 mg/kg, iv; format: ADME, organism-based; set-up: dose 10 mg/kg, route intravenous; conditions: in vivo
Cytochrome P450 3A4 = Cytochrome P450 3A4 (Homo sapiens, UniProt P08684); test: Inhibition of CYP3A4; format: ADME
Cytochrome P450 3A4, sequence (P08684 whole entry): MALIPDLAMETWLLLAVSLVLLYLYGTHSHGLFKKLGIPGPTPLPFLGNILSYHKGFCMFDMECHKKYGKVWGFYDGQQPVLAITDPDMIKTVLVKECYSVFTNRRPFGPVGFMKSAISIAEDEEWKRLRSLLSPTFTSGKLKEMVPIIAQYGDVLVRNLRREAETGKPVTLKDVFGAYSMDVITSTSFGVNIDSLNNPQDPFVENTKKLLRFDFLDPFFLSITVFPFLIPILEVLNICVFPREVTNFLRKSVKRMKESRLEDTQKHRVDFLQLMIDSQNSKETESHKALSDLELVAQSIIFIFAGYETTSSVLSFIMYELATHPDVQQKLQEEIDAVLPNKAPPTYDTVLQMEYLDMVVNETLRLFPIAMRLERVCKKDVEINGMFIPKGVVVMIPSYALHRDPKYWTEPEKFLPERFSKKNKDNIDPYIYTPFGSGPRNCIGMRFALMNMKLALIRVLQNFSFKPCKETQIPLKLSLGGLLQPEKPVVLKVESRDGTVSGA

Cytochrome P450 2C9 = Cytochrome P450 2C9 (Homo sapiens, UniProt P11712); test: Inhibition of CYP2C9; format: ADME
Cytochrome P450 2C9, sequence (P11712 whole entry): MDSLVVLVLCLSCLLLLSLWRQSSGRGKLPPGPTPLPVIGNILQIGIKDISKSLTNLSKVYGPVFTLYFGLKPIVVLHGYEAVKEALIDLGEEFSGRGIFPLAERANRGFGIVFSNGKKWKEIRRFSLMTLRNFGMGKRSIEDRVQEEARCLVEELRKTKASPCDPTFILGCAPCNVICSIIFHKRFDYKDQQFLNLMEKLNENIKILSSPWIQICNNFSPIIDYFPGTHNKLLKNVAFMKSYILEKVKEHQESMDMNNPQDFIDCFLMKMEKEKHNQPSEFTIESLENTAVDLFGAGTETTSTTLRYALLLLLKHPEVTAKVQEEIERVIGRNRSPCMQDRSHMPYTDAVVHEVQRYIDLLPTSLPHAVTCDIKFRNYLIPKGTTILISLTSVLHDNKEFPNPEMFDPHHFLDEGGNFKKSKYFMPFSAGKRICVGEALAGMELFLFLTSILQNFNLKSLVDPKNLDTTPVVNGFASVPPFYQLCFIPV

[9] = Drug level in rat at 10 mg/kg, ip after 48 hrs; format: ADME, organism-based; set-up: dose 10 mg/kg, route intraperitoneal; conditions: in vivo, read-out: Drug uptake
[10] = Drug level in rat brain at 10 mg/kg, ip after 60 mins; format: ADME, organism-based; set-up: dose 10 mg/kg, route intraperitoneal; conditions: read-out: Drug uptake
[11] = Oral bioavailability in rat at 10 mg/kg; format: ADME, organism-based; conditions: in vivo
[12] = Binding affinity to sigma receptor at 10 uM
[13] = Plasma concentration in rat 10 mg/kg, ip after 60 mins; format: ADME, organism-based; set-up: dose 10 mg/kg, route intraperitoneal
Cytochrome P450 2D6 = Cytochrome P450 2D6 (Homo sapiens, UniProt P10635); test: Inhibition of CYP2D6; format: ADME
Cytochrome P450 2D6, sequence (P10635 whole entry): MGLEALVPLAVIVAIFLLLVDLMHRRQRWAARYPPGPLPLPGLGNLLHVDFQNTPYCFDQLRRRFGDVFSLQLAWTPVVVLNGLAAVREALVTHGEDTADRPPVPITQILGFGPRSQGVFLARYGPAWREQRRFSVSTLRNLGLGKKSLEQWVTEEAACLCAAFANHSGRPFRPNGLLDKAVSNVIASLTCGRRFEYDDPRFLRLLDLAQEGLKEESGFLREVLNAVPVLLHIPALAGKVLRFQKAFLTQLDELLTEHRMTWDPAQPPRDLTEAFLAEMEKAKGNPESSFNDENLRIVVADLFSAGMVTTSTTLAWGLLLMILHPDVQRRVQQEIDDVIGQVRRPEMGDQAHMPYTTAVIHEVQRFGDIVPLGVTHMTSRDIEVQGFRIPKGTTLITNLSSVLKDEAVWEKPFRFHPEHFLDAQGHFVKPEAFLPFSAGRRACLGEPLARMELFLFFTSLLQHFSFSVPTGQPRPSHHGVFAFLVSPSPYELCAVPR

Cytochrome P450 1A2 = target: T2, Cytochrome P450 1A2 (Homo sapiens, UniProt P05177); test: Inhibition of CYP1A2; format: ADME
T2 sequence (P05177 whole entry): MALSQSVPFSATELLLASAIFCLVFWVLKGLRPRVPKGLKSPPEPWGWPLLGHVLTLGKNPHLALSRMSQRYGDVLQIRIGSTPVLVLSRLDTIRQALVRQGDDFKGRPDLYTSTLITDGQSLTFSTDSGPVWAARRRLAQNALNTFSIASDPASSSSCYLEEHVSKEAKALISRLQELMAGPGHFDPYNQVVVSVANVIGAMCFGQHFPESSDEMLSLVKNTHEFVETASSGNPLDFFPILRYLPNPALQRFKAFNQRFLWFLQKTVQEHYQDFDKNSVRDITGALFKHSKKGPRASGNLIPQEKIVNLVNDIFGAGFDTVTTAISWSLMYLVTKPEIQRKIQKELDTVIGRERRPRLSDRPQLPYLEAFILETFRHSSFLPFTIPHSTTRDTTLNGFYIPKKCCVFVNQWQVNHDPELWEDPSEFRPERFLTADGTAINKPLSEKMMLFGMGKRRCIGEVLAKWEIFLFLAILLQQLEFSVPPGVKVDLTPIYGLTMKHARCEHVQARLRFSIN

Cytochrome P450 2C19 = Cytochrome P450 2C19 (Homo sapiens, UniProt P33261); test: Inhibition of CYP2C19; format: ADME
Cytochrome P450 2C19, sequence (P33261 whole entry): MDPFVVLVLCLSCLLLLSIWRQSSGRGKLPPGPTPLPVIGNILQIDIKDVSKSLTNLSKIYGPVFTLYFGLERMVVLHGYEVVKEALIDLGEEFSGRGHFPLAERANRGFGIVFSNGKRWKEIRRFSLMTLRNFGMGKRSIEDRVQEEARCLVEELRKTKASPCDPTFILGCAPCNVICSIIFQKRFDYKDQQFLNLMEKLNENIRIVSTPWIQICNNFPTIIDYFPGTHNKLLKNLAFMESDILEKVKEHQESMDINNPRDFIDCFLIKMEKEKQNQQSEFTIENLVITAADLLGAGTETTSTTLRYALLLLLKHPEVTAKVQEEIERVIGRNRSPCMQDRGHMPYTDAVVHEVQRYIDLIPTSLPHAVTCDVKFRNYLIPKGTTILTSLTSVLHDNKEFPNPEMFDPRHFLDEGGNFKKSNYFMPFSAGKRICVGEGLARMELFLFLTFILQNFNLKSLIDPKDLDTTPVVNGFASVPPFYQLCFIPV

T1 sequence (Q9Y5N1 whole entry): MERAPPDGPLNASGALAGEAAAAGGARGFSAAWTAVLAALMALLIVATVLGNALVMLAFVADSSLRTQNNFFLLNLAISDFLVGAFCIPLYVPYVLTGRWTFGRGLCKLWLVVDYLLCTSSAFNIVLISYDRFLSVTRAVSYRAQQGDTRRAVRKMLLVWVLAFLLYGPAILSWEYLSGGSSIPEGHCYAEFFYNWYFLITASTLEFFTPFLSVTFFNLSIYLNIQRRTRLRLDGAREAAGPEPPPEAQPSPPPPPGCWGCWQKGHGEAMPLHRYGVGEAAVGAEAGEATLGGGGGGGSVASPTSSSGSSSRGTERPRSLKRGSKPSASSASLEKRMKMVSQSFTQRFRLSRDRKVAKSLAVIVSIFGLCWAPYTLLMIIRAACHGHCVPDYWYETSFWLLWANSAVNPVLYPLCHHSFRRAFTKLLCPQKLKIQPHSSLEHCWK

Row | Structure (SMILES) | Kb (Histamine H3 receptor [1]) [nM] | Ki (Histamine H3 receptor [2]) [nM] | also measured
1 | CC(C)N1CCC(COc2ncc(C(=O)c3cccc(Cl)c3)n2C)CC1 | 0.2 | 5 | 
2 | CC(C)N1CCC(Oc2ncc(C(=O)c3ccc(Cl)cc3)n2C)CC1 | 6.31 | 10 | 
3 | CC(C)N1CCC(COc2ncc(C(=O)c3ccccc3)n2C)CC1 | 0.316 | 1 | 
4 | Cn1c(C(=O)c2ccc(Cl)cc2)cnc1NCCCN1CCCCC1 | 39.8 | 50 | half-life [3]: > 3 h; half-life [4]: 0.0667 h
5 | CC(C)N1CCC(COc2ncc(C(=O)c3ccc(F)cc3)n2C)CC1 | 0.316 | 3 | 
6 | CC(C)c1ccc(C(=O)c2cnc(OCC3CCN(C(C)C)CC3)n2C)cc1 | 1.26 | 9 | 
7 | CC(C)N1CCC(COc2ncc(C(=O)c3ccc(Cl)cc3)n2C)CC1 | 0.501 | 3 | Vd [5]: 5.2 L/kg; half-life [6]: 9 h; Kb (Histamine H3 receptor [7]): 10 nM; clearance [8]: 9.3 mL/min/kg; IC50 (Cytochrome P450 3A4): > 10000 nM; IC50 (Cytochrome P450 2C9): > 10000 nM; concentration at 48 h [9]: 3.8 µM; concentration at 1 h [10]: 17 µM; bioavailability [11]: 10%; Activity [12]: 77%; concentration at 1 h [13]: 2.6 µM; IC50 (Cytochrome P450 2D6): > 10000 nM; IC50 (Cytochrome P450 1A2): > 10000 nM; IC50 (Cytochrome P450 2C19): > 10000 nM
8 | Cn1c(C(=O)c2ccc(Cl)cc2)cnc1SCCCN1CCCCC1 | 20 | 6 | half-life [3]: 2.48 h; half-life [4]: 0.117 h
9 | CC(C)N1CCC(COc2ncc(C(=O)c3cc(Cl)cc(Cl)c3)n2C)CC1 | 1 |  | 
10 | CC(C)CCCSc1ncc(C(=O)c2ccc(Cl)cc2)n1C | 10000 | > 5000 | 
11 | CN(C)CCCSc1ncc(C(=O)c2ccc(Cl)cc2)n1C | 2 | 5 | 
12 | c1cc(Sc2ccc([C@H]3CC[C@H]4CCCCN43)cc2)ccn1 |  | 12 | 
13 | CC(C)N1CCC(COc2ncc(C(=O)c3ccc(Br)cc3)n2C)CC1 | 0.794 | 3 | 
14 | CC(C)N1CCC(COc2ncc(C(=O)c3ccc(C(F)(F)F)cc3)n2C)CC1 | 0.501 | 4 | 
15 | CCCCN(CCCC)CCCOc1ccc(-c2cn3cccc(C)c3n2)cc1 |  | 4 | 

The remaining molecules from weak to strong by Ki (Histamine H3 receptor [2]), led by results:

Row | Kb (Histamine H3 receptor [1]) [nM] | Ki (Histamine H3 receptor [2]) [nM] | Structure (SMILES) | also measured
16 | 50.1 | 71 | CN(C)CCSc1ncc(Cc2ccc(Cl)cc2)n1C | 
17 | 79.4 | 70 | CC(C)N1CCC(CCOc2ncc(C(=O)c3ccc(Cl)cc3)n2C)CC1 | 
18 |  | 50 | Cn1c(C(=O)c2ccc(Cl)cc2)cnc1SCCCCN1CCCCC1 | 
19 | 10 | 24 | Cn1c(C(=O)c2ccc(Cl)cc2)cnc1CCCCN1CCCCC1 | half-life [3]: 2.98 h; half-life [4]: 0.0667 h
20 | 6.31 | 20 | CN(C)CCCSc1ncc(Cc2ccc(Cl)cc2)n1C | 
21 | 3.98 | 18 | CN(C)CCCSc1ncc(C(O)c2ccc(Cl)cc2)n1C (stereo not given) | 
22 | 12.6 | 14 | Cn1c(C(=O)c2ccc(Cl)cc2)cnc1OCCCN1CCCCC1 | half-life [3]: > 3 h; half-life [4]: 0.917 h
23 | 1 | 4 | CC(C)N1CCC(COc2ncc(C(=O)c3ccc([N+](=O)[O-])cc3)n2C)CC1 | 
24 | 3.98 | 2 | CN(C)CCCSc1ncc(/C(=N\O)c2ccc(Cl)cc2)n1C | 
25 | 0.501 | 2 | CC(C)N1CCC(Sc2ncc(C(=O)c3ccc(Cl)cc3)n2C)CC1 | 
26 | 0.00794 | 1 | CC(C)N1CCC(COc2ncc(C(=O)c3ccccc3Cl)n2C)CC1 | 

Source: ChEMBL document CHEMBL1143321, “Novel imidazole-based histamine H3 antagonists” (Bioorg Med Chem Lett, 2009)
